In US4966916A (priority 1989, dated 1990):
Entries after “also recorded” stand apart in the source; their conditions may differ. Read-outs that look alike come from different tables or passages of the source.

Experiments:
rats = system: rats; set-up: species or system Sprague-Dawley male rats; conditions: rat, in vivo
[1] = system: nicotine-induced seizures in rats; conditions: rat, in vivo
[2] = system: nicotine mortality in rats; conditions: rat, in vivo
[3] = system: hypertensive action of nicotine in anesthetized rats; conditions: rat, in vivo, iv
[4] = system: [3H]-nicotine binding sites in rat brain membranes
[5] = system: nicotine-induced prostration in rats; set-up: species or system Sprague-Dawley male rats; conditions: rat, in vivo
[6] = system: nicotine receptor, rat brain membranes; format: binding; conditions: for IC50: read-out: [3H]-nicotine IC50
[7] = system: nicotine receptor, rat brain membranes; format: binding; conditions: for IC50: read-out: [3H]-MCC IC50
[8] = biological target: nicotine receptor, rat brain membranes; format: binding
rats or mice = conditions: in vivo; cited from earlier work
[9] = biological target: nicotine receptor, rat brain membranes; format: binding; remark: listed apart in the source
[10] = system: hypertensive action of nicotine in anesthetized rats; test: animal or person; conditions: Rattus norvegicus, iv
[11] = system: nicotinic cholinergic and nicotine-like binding sites in rat brain membranes
[12] = read-out: 3H-Nicotine Binding IC50

Compound: CN1CCCC1c1cccnc1 (single isomer, unassigned; (-)) [(-)-nicotine]
- action on prostration (rats): agonists
- behavioral / respiratory effects (rats): deep diaphragmatic breathing and a decreased respiratory rate
- symptoms [1]: prostration followed by tremors, fasciculations, cyanosis and labored breathing, and myoclonic seizures
- Seizures (rats with seizures/total) ([1]; 1.5 mg/kg): 10/10
- Mortality (dead/total) ([2]; ip, 3 mg/kg): 8/10
- increase in systolic blood pressure [3]: 25%

Compound: CN1CCCC1c1cccnc1 (single isomer, unassigned; (-)) [[^3 H]-nicotine, (-)-[^3 H]-nicotine]
- Bmax, higher affinity site [4]: 5e-15 mol/mg

Compound: CN(C)c1cccnc1 [3-dimethylaminopyridine]
- action on prostration (rats): agonists

Compound: CN(C)CCOC(=O)c1ccccc1 [DMAE benzoate, dimethylaminoethyl benzoate]
- % Antagonism of seizures [1]: 45%
- Seizures (rats with seizures/total) [1]: 5/9

Compound: CN(C)CCOC(N)=O [DMAE carbamate]
- behavioral effect (rats): only a similar effect

Compound: CN(C)CCOC(=O)C1CCCCC1 [DMAE cyclohexylcarboxylate, dimethylaminoethyl cyclohexylcarboxylate]
- % Antagonism of seizures [1]: 50%
- Seizures (rats with seizures/total) [1]: 4/8
- seizures [1]: about half of the rats exhibited seizures

Compound: CN(C)CCOC(=O)c1cccnc1 [DMAE nicotinate]
- antagonism of nicotine-induced prostration / nicotine actions [5]: next in effectiveness; also recorded: antagonistic to the nicotine-induced prostration

Compound: CCN1CCCC1c1cccnc1 (stereo not shown) [N'-ethyl nornicotine]
- decrease in affinity versus nicotine [6]: 3 fold
- decrease in affinity versus nicotine [7]: 3 fold
- IC50 [7]: 0.1 µM
- IC50 ([8]; read-out: 3H-MCC Binding IC50): 0.1 µM

Compound: C[N+]1(C)CCCC1c1cccnc1 (stereo not shown) [N'-methyl nicotonium]
- seizures and mortality relative to nicotine (rats or mice): more potent than nicotine in producing seizures and mortality

Compound: CCCN1CCCC1c1cccnc1 (stereo not shown) [N'-propyl nornicotine]
- decrease in affinity versus nicotine [6]: 200 fold
- decrease in affinity versus nicotine [7]: 200 fold

Compound: CNC(=O)OC1CCN(Cc2ccccc2)CC1 [N-benzyl-4-piperdyl methylcarbamate]
- IC50 [9, 12]: > 100 µM
- IC50 ([8]; read-out: 3H-MCC Binding IC50): > 100 µM

Compound: C[N+](C)(C)CCOC(=O)c1ccccc1 [TMAE benzoate, benzoylcholine]
- effectiveness relative to the DMAE ester [5]: 5 times
- % Antagonism of seizures [1]: 78%
- Seizures (rats with seizures/total) [1]: 1/8
- % Antagonism of mortality [2]: 63%
- Mortality (dead/total) [2]: 3/10
- protection against nicotine mortality [2]: 63%

Compound: C[N+](C)(C)CCOC(=O)C1CCCCC1 [TMAE cyclohexylcarboxylate, choline ester of cyclohexylcarboxylic acid]
- % Antagonism of seizures [1]: 78%
- Seizures (rats with seizures/total) [1]: 1/8
- protection against nicotine mortality [2]: 66%
- ED100 ([10]; read-out: Antagonistic dose (±s.d.) to completely block elevation in systolic blood pressure): 5 ± 1.5 mg/kg
- ED100 ([10]; read-out: dose completely reversing increase in systolic blood pressure): 1.5 mg/kg

Compound: C[N+](C)(C)CCOC(=O)Cc1ccccc1 [TMAE phenylacetate]
- antagonism of nicotine-induced prostration / nicotine actions [5]: next in effectiveness

Compound: C[N+](C)(C)CCOC(=O)Nc1ccccc1 [TMAE phenylcarbamate]
- antagonism of nicotine-induced prostration / nicotine actions [5]: next in effectiveness
- % Antagonism of seizures [1]: 89%
- Seizures (rats with seizures/total) [1]: 1/9
- protection against seizures [1]: almost complete protection
- % Antagonism of mortality [2]: 50%
- Mortality (dead/total) [2]: 4/10
- protection against nicotine mortality [2]: 50%

Compound: C[N+](C)(C)CCOC(=S)Nc1ccccc1 [TMAE phenylthiocarbamate]
- antagonism of nicotine-induced prostration / nicotine actions [5]: next in effectiveness
- % Antagonism of mortality [2]: 63%
- Mortality (dead/total) [2]: 3/10
- protection against nicotine mortality [2]: 63%

Compound: C[N+](C)(C)CCOC(=O)CCC(=O)OCC[N+](C)(C)C [TMAE succinate, succinylcholine]
- IC50 [9, 12]: 0.8 µM
- IC50 ([9]; read-out: IC50 for 3H-nicotine): ~50 µM
- IC50 ([8]; read-out: 3H-MCC Binding IC50): 0.7 µM
- IC50 ([8]; read-out: IC50 for 3H-MCC): ~50 µM

Compound: [3H]C([3H])([3H])[N+](C)(C)CCOC(=O)NC [[^3 H]-MCC, [^3 H]-methylcarbamyl choline]
- Bmax (Scatchard analysis) [11]: 4.0×10^-14 moles/mg protein
- rate constant for association ([11]; brain membranes): 300000 M⁻¹ s⁻¹
- rate constant for dissociation ([11]; brain membranes): 0.001 s⁻¹

Compound: CN1[C@@H]2CC[C@H]1C[C@@H](OC(=O)C(CO)c1ccccc1)C2 (stereo partly shown) [atropine]
- % Antagonism of seizures [1]: 0%
- Seizures (rats with seizures/total) [1]: 6/6
- protection against nicotine mortality [2]: ineffective

Compound: COC(=O)[C@H]1[C@@H](OC(=O)c2ccccc2)C[C@@H]2CC[C@H]1N2C [cocaine]
- antagonism of nicotine-induced prostration / nicotine actions [5]: effectively block nicotine-induced prostration
- antagonist activity [5]: inactive

Compound: C[N+](C)(C)CCCCCC[N+](C)(C)C [hexamethonium]
- Kd [6]: > 100 µM
- IC50 [6]: > 100 µM
- IC50 [7]: > 100 µM

Compound: CCN(CC)CC(=O)Nc1c(C)cccc1C [lidocaine]
- antagonist activity [5]: inactive

Compound: CNC(=O)Oc1ccc2c(c1)[C@]1(C)CCN(C)[C@@H]1N2C [physostigmin]
- antagonist activity [5]: inactive

Compound: CCN(CC)CCOC(=O)c1ccc(N)cc1 [procaine]
- antagonism of nicotine-induced prostration / nicotine actions [5]: effectively block nicotine-induced prostration
- antagonist activity [5]: antagonists

Compound: CN(C)C(=O)Oc1cccc([N+](C)(C)C)c1 [prostigmin]
- antagonist activity [5]: inactive

Compound: CN1[C@@H](CC(=O)c2ccccc2)CCC[C@H]1C[C@H](O)c1ccccc1 [α-lobeline]
- binding affinity [9]: even greater affinity than (-)-nicotine; also recorded: very high affinity for brain nicotine receptors
- antagonist activity [5]: most effective antagonist in blocking the prostration, seizures, and mortality
- dose blocking nicotine-induced prostration [5]: 10 nmol
- % Antagonism of seizures [1]: 0/8
- Seizures (rats with seizures/total) [1]: 1/8
- protection against seizures [1]: complete protection against seizures
- % Antagonism of mortality [2]: 75%
- Mortality (dead/total) [2]: 2/10
- reduction of the mortality [2]: 75%

Compound: DMAE naphthoate [DMAE napththoate]
- IC50 [9, 12]: 80 µM
- IC50 ([8]; read-out: 3H-MCC Binding IC50): 70 µM

Compound: N-benzylpiperidyl methylcarbamate
- IC50 [9, 12]: > 100 µM
- IC50 ([8]; read-out: 3H-MCC Binding IC50): > 100 µM

Compound: TMAE naphthoate [TMAE napththoate]
- IC50 [9, 12]: 9 µM
- IC50 ([8]; read-out: 3H-MCC Binding IC50): 5 µM

Compound: α-bungarotoxin
- Kd [6]: > 100 µM
- IC50 [6]: > 100 µM
- IC50 [7]: > 100 µM
